Experimental data as given in patent US12162872B2, “Cycloalkylurea derivative” (Sumitomo Pharma Co., Ltd., priority 2019, dated 2024).

These molecules were tested against T1, Human orexin receptor type 2 (Homo sapiens, UniProt O43614) (assay: Test 1: Evaluation of agonist activity for orexin receptor type 2 (aequorin luminescence, intracellular calcium mobilization in CHO cells)). Conditions: relative percentage of luminescence for the luminescence (100%) of Orexin A (100 pM); CHO cells transiently expressing human orexin receptor type 2 and apoaequorin; Orexin A Lot. 641114.
T1 construct: expressed in transfected cells; host or cells: CHO cells (transient expression)
T1 sequence (O43614 1-444): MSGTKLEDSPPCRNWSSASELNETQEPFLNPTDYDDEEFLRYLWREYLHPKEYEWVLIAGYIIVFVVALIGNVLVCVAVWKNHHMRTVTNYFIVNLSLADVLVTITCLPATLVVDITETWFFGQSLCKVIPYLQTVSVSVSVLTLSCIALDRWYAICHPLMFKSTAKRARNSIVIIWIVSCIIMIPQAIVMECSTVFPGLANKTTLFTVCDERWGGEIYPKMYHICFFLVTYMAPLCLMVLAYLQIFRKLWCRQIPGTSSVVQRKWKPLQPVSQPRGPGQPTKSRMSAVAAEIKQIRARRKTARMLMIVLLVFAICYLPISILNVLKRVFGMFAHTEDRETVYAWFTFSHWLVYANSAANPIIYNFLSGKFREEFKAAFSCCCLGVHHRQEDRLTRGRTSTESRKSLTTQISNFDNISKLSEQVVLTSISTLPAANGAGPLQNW
Type: cell-based
Procedure: Test 1: Evaluation of Agonist Activity for Orexin Receptor Type 2
Human orexin receptor type 2 and apoaequorin were transiently expressed in CHO cells, and the agonist activity was evaluated based on intracellular calcium mobilization with ligand stimulation. The CHO cells transiently-expressed human orexin receptor type 2 and apoaequorin were seeded on a 384-well plate by 2,000 cells/well, and then incubated for 16-22 hours. After the plate was returned to room temperature, Coelenterazine hcp (final concentration: 1 μM) was added to the plate, and the plate was allowed to stand at room temperature for 2 hours. And then, Orexin A (PEPTIDE INSTITUTE, INC., Lot. 641114) or each test compound was added to the plate, and the luminescence of the cells was measured with FDSS7000 (Hamamatsu Photonics K.K.), wherein Orexin A and each test compound were dissolved in DMSO (final concentration: 0.1%), and diluted with a buffer (Hanks, 20 mM HEPES, 0.1% BSA). The agonist activity of each test compound for orexin receptor type 2 was calculated as relative percentage of luminescence for the luminescence (100%) of Orexin A (100 pM).
With CC(C)N1CCN([C@H]2CCCC(F)(F)[C@@H]2NC(=O)N2CCC(C)(c3cc(C4CC4)on3)CC2)CC1 (racemic) [Example 20, rac-4-(5-cyclopropyl-1,2-oxazol-3-yl)-N-{(1R,6S)-2,2-difluoro-6-[4-(propan-2-yl)piperazin-1-yl]cyclohexyl}-4-methylpiperidine-1-carboxamide] the “agonist activity (%)” value was 160%. CC(C)N1CCN([C@H]2CCCC(F)(F)[C@@H]2NC(=O)N2CCC(C)(c3ncn(C4CC4)n3)CC2)CC1 (racemic) [Example 29, rac-4-(1-cyclopropyl-?H-1,2,4-triazol-3-yl)-N-{(1R,6S)-2,2-difluoro-6-[4-(propan-2-yl)piperazin-1-yl]cyclohexyl}-4-methylpiperidine-1-carboxamide] was tested, and the “agonist activity (%)” value was 109%. CC(C)N1CC[C@H](O[C@H]2CCCC(F)(F)[C@@H]2NC(=O)N2CCC(C)(c3noc(C4CC4)n3)CC2)C1 [Example 71, 4-(5-cyclopropyl-1,2,4-oxadiazol-3-yl)-N-[(1R,6S)-2,2-difluoro-6-{[(3S)-1-(propan-2-yl)pyrrolidin-3-yl]oxy}cyclohexyl]-4-methylpiperidine-1-carboxamide] was tested, and the “agonist activity (%)” value was 199%. For CC(C)N1C[C@@H](O[C@H]2CCCC(F)(F)[C@@H]2NC(=O)N2CCC(C)(c3noc(C4CC4)n3)CC2)C(F)(F)C1 [Example 76, 4-(5-cyclopropyl-1,2,4-oxadiazol-3-yl)-N-[(1R,6S)-6-{[(3R)-4,4-difluoro-1-(propan-2-yl)pyrrolidin-3-yl]oxy}-2,2-difluorocyclohexyl]-4-methylpiperidine-1-carboxamide], the “agonist activity (%)” value was 145%. In the case of CC(C)N1CCN([C@H]2CCCC(F)(F)[C@@H]2NC(=S)N2CCC(C)(c3noc(C4CC4)n3)CC2)CC1 (racemic) [Example 79, rac-4-(5-cyclopropyl-1,2,4-oxadiazol-3-yl)-N-{(1R,6S)-2,2-difluoro-6-[4-(propan-2-yl)piperazin-1-yl]cyclohexyl}-4-methylpiperidine-1-carbothioamide], the “agonist activity (%)” value is reported as 191%. In the case of CC(C)N1CCN([C@H]2[C@H](NC(=O)N3CCC(C)(c4noc(C5CC5)n4)CC3)CCCC2(F)F)CC1 (racemic) [Example 7, rac-4-(5-cyclopropyl-1,2,4-oxadiazol-3-yl)-N-{(1R,2S)-3,3-difluoro-2-[4-(propan-2-yl)piperazin-1-yl]cyclohexyl}-4-methylpiperidine-1-carboxamide], the “agonist activity (%)” value is reported as 75%. CC(C)N1CCN([C@H]2CCCC(F)(F)[C@@H]2NC(=O)N2CCC(C)(c3nc4c(o3)CCCC4)CC2)CC1 (racemic) [Example 27, rac-N-{(1R,6S)-2,2-difluoro-6-[4-(propan-2-yl)piperazin-1-yl]cyclohexyl}-4-methyl-4-(4,5,6,7-tetrahydro-1,3-benzoxazol-2-yl)piperidine-1-carboxamide] was tested, and the “agonist activity (%)” value was 162%. With Cc1ccc(C2CCN(C(=O)N[C@H]3CCC[C@@H]3N3CCN(C(C)C)CC3)CC2)cc1 (racemic) [Example 5, rac-4-(4-methylphenyl)-N-{(1S,2S)-2-[4-(propan-2-yl)piperazin-1-yl]cyclopentyl}piperidine-1-carboxamide] the “agonist activity (%)” value was 103%. CC(C)N1CCN([C@@H]2CCCC(F)(F)[C@H]2NC(=O)N2CCC(C)(c3noc(C4CC4)n3)CC2)CC1 [Example 23, 4-(5-cyclopropyl-1,2,4-oxadiazol-3-yl)-N-{(1S,6R)-2,2-difluoro-6-[4-(propan-2-yl)piperazin-1-yl]cyclohexyl}-4-methylpiperidine-1-carboxamide] was tested, and the “agonist activity (%)” value was 104%. In the case of Cc1ccc(C2(C)CCN(C(=O)N[C@@H]3[C@@H](N4CCN(C(C)C)CC4)CCCC3(F)F)CC2)c(F)c1 [Example 56, N-{(1R,6S)-2,2-difluoro-6-[4-(propan-2-yl)piperazin-1-yl]cyclohexyl}-4-(2-fluoro-4-methylphenyl)-4-methylpiperidine-1-carboxamide], the “agonist activity (%)” value is reported as 140%. With CC(C)N1CCN([C@H]2CCCC(F)(F)[C@@H]2NC(=O)N2CCC(F)(c3ccccn3)CC2)CC1 (racemic) [Example 46, rac-N-{(1R,6S)-2,2-difluoro-6-[4-(propan-2-yl)piperazin-1-yl]cyclohexyl}-4-fluoro-4-(pyridin-2-yl)piperidine-1-carboxamide] the “agonist activity (%)” value was 136%. In the case of CC(C)N1CCN([C@H]2CCCC(F)(F)[C@@H]2NC(=O)N2CCC(C)(c3nsc(C4CC4)n3)CC2)CC1 (racemic) [Example 31, rac-4-(5-cyclopropyl-1,2,4-thiadiazol-3-yl)-N-{(1R,6S)-2,2-difluoro-6-[4-(propan-2-yl)piperazin-1-yl]cyclohexyl}-4-methylpiperidine-1-carboxamide], the “agonist activity (%)” value is reported as 168%. CC(C)N1CCN([C@H]2CCCC(F)(F)[C@@H]2NC(=O)N2CCC(c3ccccn3)CC2)CC1 (racemic) [Example 32, rac-N-{(1R,6S)-2,2-difluoro-6-[4-(propan-2-yl)piperazin-1-yl]cyclohexyl}-4-(pyridin-2-yl)piperidine-1-carboxamide] was tested, and the “agonist activity (%)” value was 176%. CC(C)N1CCN([C@H]2CCCC(F)(F)[C@@H]2NC(=O)N2CCC(C)(c3ccccc3)CC2)CC1 (racemic) [Example 39, rac-N-{(1R,6S)-2,2-difluoro-6-[4-(propan-2-yl)piperazin-1-yl]cyclohexyl}-4-methyl-4-phenylpiperidine-1-carboxamide] was tested, and the “agonist activity (%)” value was 157%. CC(C)N1CCN([C@H]2CCCC(F)(F)[C@@H]2NC(=O)N2CCC(C)(C3CCCC3)CC2)CC1 (racemic) [Example 26, rac-4-cyclopentyl-N-{(1R,6S)-2,2-difluoro-6-[4-(propan-2-yl)piperazin-1-yl]cyclohexyl}-4-methylpiperidine-1-carboxamide] was tested, and the “agonist activity (%)” value was 198%. For CC(C)N1CCN([C@H]2CCCC(F)(F)[C@@H]2NC(=O)N2CCC(c3ccccc3)CC2)CC1 (racemic) [Example 38, rac-N-{(1R,6S)-2,2-difluoro-6-[4-(propan-2-yl)piperazin-1-yl]cyclohexyl}-4-phenylpiperidine-1-carboxamide], the “agonist activity (%)” value was 142%. For CC(C)N1CCN([C@H]2CCCC(F)(F)[C@@H]2OC(=O)N2CCC(C)(c3noc(C4CC4)n3)CC2)CC1 (racemic) [Example 9, rac-(1R,6S)-2,2-difluoro-6-[4-(propan-2-yl)piperazin-1-yl]cyclohexyl 4-(5-cyclopropyl-1,2,4-oxadiazol-3-yl)-4-methylpiperidine-1-carboxylate], the “agonist activity (%)” value was 207%. For CC(C)N1CC2CCC(C1)N2[C@H]1CCCC(F)(F)[C@@H]1NC(=O)N1CCC(C)(c2noc(C3CC3)n2)CC1 [Example 62, 4-(5-cyclopropyl-1,2,4-oxadiazol-3-yl)-N-{(1R,6S)-2,2-difluoro-6-[3-(propan-2-yl)-3,8-diazabicyclo[3.2.1]octan-8-yl]cyclohexyl}-4-methylpiperidine-1-carboxamide], the “agonist activity (%)” value was 174%. In the case of CC(C)N1CC2CCC(C1)N2[C@H]1CCCC(F)(F)[C@@H]1NC(=O)N1CCC(C)(c2cc(C3CC3)on2)CC1 [Example 65, 4-(5-cyclopropyl-1,2-oxazol-3-yl)-N-{(1R,6S)-2,2-difluoro-6-[3-(propan-2-yl)-3,8-diazabicyclo[3.2.1]octan-8-yl]cyclohexyl}-4-methylpiperidine-1-carboxamide], the “agonist activity (%)” value is reported as 155%. With CC(C)N1CCN([C@H]2CCCC(F)(F)[C@@H]2NC(=O)N2CCC(O)(c3ccc(Cl)cc3)CC2)CC1 (racemic) [Example 41, rac-4-(4-chlorophenyl)-N-{(1R,6S)-2,2-difluoro-6-[4-(propan-2-yl)piperazin-1-yl]cyclohexyl}-4-hydroxypiperidine-1-carboxamide] the “agonist activity (%)” value was 23%. For CC(C)N1CCN([C@H]2CCCC(F)(F)[C@@H]2NC(=O)N2CCC(c3ccc(C(F)(F)F)cn3)CC2)CC1 (racemic) [Example 55, rac-N-{(1R,6S)-2,2-difluoro-6-[4-(propan-2-yl)piperazin-1-yl]cyclohexyl}-4-[5-(trifluoromethyl)pyridin-2-yl]piperidine-1-carboxamide], the “agonist activity (%)” value was 95%. In the case of CC(C)N1C[C@H](O[C@H]2CCCC(F)(F)[C@@H]2NC(=O)N2CCC(C)(c3noc(C4CC4)n3)CC2)[C@@H](F)C1 [Example 75, 4-(5-cyclopropyl-1,2,4-oxadiazol-3-yl)-N-[(1R,6S)-2,2-difluoro-6-{[(3S,4S)-4-fluoro-1-(propan-2-yl)pyrrolidin-3-yl]oxy}cyclohexyl]-4-methylpiperidine-1-carboxamide], the “agonist activity (%)” value is reported as 141%. For CC(C)N1CCN([C@H]2CCCC(F)(F)[C@@H]2NC(=O)N2CCC(c3ncccn3)CC2)CC1 (racemic) [Example 36, rac-N-{(1R,6S)-2,2-difluoro-6-[4-(propan-2-yl)piperazin-1-yl]cyclohexyl}-4-(pyrimidin-2-yl)piperidine-1-carboxamide], the “agonist activity (%)” value was 114%.
